From patent US20260327239A1, “COMPOUNDS FOR COVALENT INHIBITION OF SHP2” (Purdue Research Foundation, priority 2023, published 2026)
Entries after “also recorded” stand apart in the source; their conditions may differ.

Columns and labels:
SHP2 (residues 224-528) = biological target: T1, SHP2 (residues 224-528) (Homo sapiens, UniProt Q06124); test: Kinetic characterization of SHP2 inactivation (pNPP cleavage progress curves, kobs, kinact/KI); format: biochemical
T1 construct: 4× solution of SHP2 (residues 224-528)
T1 sequence (Q06124 224-528): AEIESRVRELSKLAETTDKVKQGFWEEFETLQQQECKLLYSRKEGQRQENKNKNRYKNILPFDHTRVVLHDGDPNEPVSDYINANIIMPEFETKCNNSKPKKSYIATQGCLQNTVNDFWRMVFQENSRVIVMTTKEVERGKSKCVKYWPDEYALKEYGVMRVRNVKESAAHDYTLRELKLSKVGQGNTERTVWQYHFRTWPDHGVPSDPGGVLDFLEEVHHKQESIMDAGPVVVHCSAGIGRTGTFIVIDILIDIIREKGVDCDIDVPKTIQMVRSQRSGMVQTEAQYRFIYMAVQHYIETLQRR
Text: Covalent inhibitors work by forming a covalent bond with a reactive functional group in the target enzyme. Consequently, the kinetics for enzyme inactivation by a covalent inhibitor is not an equilibrium process as with reversible inhibition. The potency of a reversible inhibitor can be measured by its IC50 value. Unlike reversible inhibitors, where inhibition is only concentration-dependent, covalent inhibitors show both time- and concentration-dependent target inhibition (a covalent bond formation is a time-dependent event). If sufficient time is available, covalent inhibitors can completely neutralize the target, rather than go to equilibrium. As a result, the potency and selectivity of a covalent inhibitor cannot be determined by IC50 values; instead, the rate of inactivation of the target (kinact) and the inhibition constant (KI) were determined. The bimolecular rate constant (kinact/KI), was chosen to rank the potency of covalent inhibitors (Ruddraraju et al., 2017, Molecular Biosystems 13(7), 1257-1279).
PTPs catalyze the dephosphorylation of tyrosine-phosphorylated protein substrates through a conserved mechanism that relies on a catalytic cysteine residue (Zhang, Z.-Y et al., 2003, Prog. Nucleic Acid Research Molecular Biology, 73, 171-220). This provides a mechanistic rationale for the assessment of electrophilic Michael acceptors, such as those synthesized in the present disclosure as potential covalent inhibitors of the SHP2. The enzymatic cleavage of para-nitrophenyl phosphate by SHP2 was measured over time in the presence of 100 μM inhibitor or DMSO, to determine the observed first-order rate constant (kobs). Based on kobs values, compounds were further evaluated in a dose-dependent manner to determine the second-order rate constant (kinact/KI) indicating the overall efficacy of the compounds, which was used to assess the structure-activity relationship (SAR) for the analogs of interest and design additional analogs (see Table 1). […] It has been known that modifications to the electronegativity of substituents proximal to electrophilic centers alter the reactivity of the electrophile.
The efficacy of covalent inhibitors can be broken down into the initial reversible binding of the compounds (KI), and the rate of covalent bond formation and enzyme inactivation (kinact). These two constants can be used individually, or as a ratio to determine the overall efficacy of the inhibitor's efficacy. To investigate the contribution to reversible binding compound (34) was evaluated, which lacks the carbonyl of the Michael acceptor to prevent the formation of a covalent adduct.
Inhibitors were evaluated for their ability to inhibit the reaction catalyzed by SHP2 using para-nitrophenyl phosphate (pNPP) as a substrate at pH 7 and 25° C. A 2× solution of inhibitor was diluted into DMG buffer (50 mM 3,3-dimethylglutarate pH 7.0, 1 mM EDTA, ionic strength adjusted to 150 mM using NaCl) was added to a clear flat-bottom 96-well plate (Corning Costar Assay Plate #9017), and serially diluted 1.5-fold, resulting in 100 μL volumes of varying inhibitor concentrations. To this was added a 4× solution of pNPP (12 mM) in DMG buffer. The reaction was initialized by the addition of a 4× solution of SHP2 (residues 224-528), resulting in a final solution of: inhibitor (100-0 μM), pNPP (3 mM), and SHP2 (100 nM). The plate was then monitored for a change in absorbance ab […] using a CLARIOstar^Plus plate reader (BMG Labetch) over the course of an hour. The resulting progress curves for each inhibitor were imported into Graphpad Prism 9 (GraphPad Software, San Diego, CA (USA)), and a baseline correction analysis was completed for fitting purposes. Each curve was fit to the equation Y=V0×(1−e^−kobs*t)/kobs.^[17.22] The kobs values were then plotted against inhibitor concentrations. If the resulting graph was linear, the kinact/KI value was determined by the slope of that line and the 95% confidence interval (95% CI). […]

SHP2 [1] = biological target: T2, SHP2 (Homo sapiens, UniProt Q06124); test: Active site protection by vanadate (jump-dilution assay); format: biochemical; conditions: role: inhibitor, 10 min, diluted 100-fold into 10 mM pNPP
T2 construct: 4× solution of SHP2 (residues 224-528)
T2 sequence (Q06124 224-528): T1 sequence (Q06124 224-528)
Procedure: To further support a covalent mechanism of action and engagement of the SHP2 active site, a jump-dilution assay was employed both in the presence and absence of the known reversible PTP active site competitive inhibitor vanadate (VO4) (Seiner, D. R. et al., Chem. Res. Toxicol. 2007, 20, 1315-1320) In this experiment, SHP2 was co-incubated with 100 μM compound (10) and 500 μM vanadate or DMSO for 10 minutes. The enzyme-inhibitor complex was then rapidly diluted 100-fold into a buffered solution containing 10 mM pNPP, and the absorbance at 405 nm was immediately monitored over time to determine the remaining enzymatic activity.
A solution containing 500 μM Vanadate or DMSO, 4 μM SHP2, and 100 μM (10) or DMSO in DMG buffer (with no EDTA) was added to a clear flat-bottom 96-well plate (Corning Costar Assay Plate #9017). This was allowed to incubate for 10 minutes at 25° C. before transferring 3 μL to a new clear flat-bottom 96-well plate (Corning Costar Assay Plate #9017). To each well was added 297 μL of 10.1 mM pNPP in DMG buffer (with EDTA) and the plate Plates were then read for absorbance at 405 nm using a CLARIOstar^Plus plate reader (BMG Labetch). Data was imported into Graphpad Prism 9 (GraphPad Software, San Diego, CA (US)), and a baseline correction analysis was completed for fitting purposes.

SHP2 [2] = biological target: T2, SHP2; test: Covalent adduct formation on SHP2 by intact protein LC-MS; format: binding; conditions: 10 μM SHP2, 60 minutes
Procedure: To validate covalent modification of SHP2 by the active compounds, adduct formation on SHP2 was measured by intact protein liquid chromatography-mass spectrometry (LC-MS). With intact protein LC-MS, multiply charged states of the protein species can be deconvoluted to achieve the total mass(es). Compounds were incubated with 10 μM SHP2 for 60 minutes before being quenched with acetonitrile for LC-MS analysis by electrospray ionization (ESI) in positive mode. […] (33), and (42) (FIGS. 3A and 3B).
To unfold protein and quench protein-ligand reactivity, 10 μL of treated or untreated 10 μM SHP2 was diluted in 40 μL of 80% (v/v) formic acid initially, followed by 150 μL of LC-MS buffer (50/50 water/acetonitrile with 0.1% formic acid). 20-25 pmol per sample was analyzed by LC/MS (Agilent 1260 Infinity II with a ZORBAX Rapid Resolution High Definition 300 Å Stable Bond C3, 2.1×100 mm, 1.8 μm column) attached to an Agilent 6129 quadrupole mass spectrometer in positive ion mode. The column was held at 45° C. Mobile solution A was 0.1% formic acid in water, and mobile phase B was 0.1% formic acid in acetonitrile. The gradient used was hold at 10% B for 5 min, increase linearly to 80% B for 15 min, and then hold at 80% B for 5 min. The mass data were collected at a range of 600-1500 m/z. Raw data were processed using MestReNova. For all samples, the deconvoluted mass was calculated by taking the m/z range of 730-1100 Da, and deconvoluted mass range from 36500-37200 Da. An abundance threshold of 10% and tolerance of 30 ppm was set for deconvolution. Unreacted SHP2's total deconvoluted mass was 36602±10 Da; for each deconvolution, the highest deconvoluted mass intensity was utilized as the mass pivot point to determine and identify reacted SHP2 adducts. To calculate the percent SHP2 reacted, the relative abundance intensity of reacted SHP2 was divided by the total relative abundance intensities of unreacted and reacted SHP2.

SMILES	kinact/KI (SHP2 (residues 224-528); pH 7, role: inhibitor, substrate pNPP 3 mM, 100 nM SHP2, pH 7.0, 25° C, read-out: kinact/KI (converted))	fold increase in efficacy compared to PVSN (SHP2 (residues 224-528); role: inhibitor, kinact/KI relative to PVSN)	residual SHP2 activity after jump-dilution (SHP2 [1]; 100 μM compound (10) alone)	residual SHP2 activity after jump-dilution with vanadate (SHP2 [1]; 100 μM compound (10) with 500 μM vanadate (competitive inhibitor))	Found Ligand Adduct (mass shift) (SHP2 [2]; intact protein LC-MS)	% SHP2 Reacted (overall adduct formation) (SHP2 [2]; PVSN at 20 μM, compound 37 at 10 μM)	SHP2 activity recovery after jump-dilution, vanadate alone (SHP2 [1]; 500 μM vanadate, compared to DMSO control)
C=C1C(=O)[C@@]2(C(=O)OC)CC(=O)C[C@@H]1C2 [Compound 10]	20.5 M⁻¹ s⁻¹	approximately 6 fold	negligible residual enzymatic activity; also recorded: Little residual activity was detected	substantial residual activity; also recorded: protected from inactivation	206 Da	34%	
[O]=[V]([O-])([O-])[O-] [vanadate, reference compound]							fully recovered activity
